A short description of this series: room-temperature solubility in toluene. It is filed as physicochemical. To be noted: organic solvent or mixture, 1-naphthalene sulfonate counterion.

SMILES strings stand for the structures. Counter-ions that a name gives are not always drawn.

A word on the solubility: it is the concentration that dissolves in the medium under given conditions.

With `C=CC[C@@]1(C)C[C@H](c2cccc(Cl)c2)[C@@H](c2ccc(Cl)cc2)[N+]2=C1OC[C@@H]2C(C)C` [oxoiminium salt, (3S,5S,6R,8S)-8-Allyl-6-(3-chlorophenyl)-5-(4-chlorophenyl)-3-isopropyl-8-methyl-2,3,5,6,7,8-hexahydrooxazolo[3,2-a]pyridin-4-ium naphthalene-1-sulfonate], the solubility was less than 10 mg/mL.

(Values after patent publication US9855259B2, “Processes of making and crystalline forms of a MDM2 inhibitor” (AMGEN INC., priority 2013, dated 2018).)
